Data published in patent US11129820B2, “Ferroportin-inhibitor salts” (Vifor (International) AG, priority 2017, dated 2021).
Several values for one entry are separate records, joined by “and”; a condition that tells them apart may be missing. Identical values can stand only once. Marks after values point to notes of the source that are not given here.

How the values were obtained:
Assay type in all cases: in vivo, mouse
[1] = test system: naïve WT C57BL/6 mice; test: Hypoferremia in naïve mice; conditions: Mus musculus, po, 3 h, relative to vehicle, read-out: Serum Iron Reduction at 3 h (%); for inhibition in vivo at 10 mg/kg: Dose 10 mg/kg p.o.; for inhibition in vivo at 30 mg/kg: Dose 30 mg/kg p.o.; for inhibition in vivo at 100 mg/kg: Dose 100 mg/kg p.o.
Protocol: Injection of synthetic hepcidin in wild-type (WT) naïve mice results in a reduction of serum iron levels (40-50% from the vehicle control) with a maximal effect at 3-4 hours post treatment (Rivera, 2005; FIG. 12A).
Female C57BL/6 mice (Janvier, France) at age of 9 weeks are fed a standard diet (Harlan Provimi Kliba 3436) and treated per os (p.o.) with compounds or the corresponding amount of vehicle at a volume of 10 ml/kg body weight. Fpn inhibitors are formulated in 0.5% methylcellulose/water or 20% cremophor EL/water and dosed p.o. in mice at 10, 30 or 100 mg/kg body weight. Three hours later, mice are pre-terminally anesthetized in isoflurane chambers and blood is collected by retro-orbital bleeding. Mice are sacrificed by cervical dislocation and spleens, livers and duodena were harvested and used for biomarker analysis. All experiments are conducted in compliance with the license approved by the responsible veterinarian authorities. Serum is isolated by centrifugation of blood into gel-containing microtainers and serum iron is determined by the MULTIGENT Iron assay (Abbott Diagnostics, 6K95). Eight mice per group are used and one-way ANOVA with Bonferroni's multiple comparison test is performed to analyze the statistical differences between the experimental groups.
Table 6 Efficacy of Fpn inhibitors tested in the naïve mouse hypoferremia model. Serum iron reduction induced by selected ferroportin inhibitors dosed p.o. in naïve WT C57BL/6 mice at 10, 30 and 100 mg/kg. Relative serum iron reduction at 3 h after dosing was calculated by subtracting the average of serum iron values of animals dosed with the Fpn inhibitor from that of vehicle-treated animals. The difference in average serum iron values between vehicle and compound treated groups was then divided by the average of serum iron of the vehicle control group and listed as percentage.

[2] = test system: beta2-microglobulin deficient (b2m−/−) mice; test: Prevention of iron overload in beta2-microglobulin deficient mice; conditions: 14 days
Protocol: In addition, feeding 3 week old b2m−/− mice a diet with low iron content (LID) immediately after weaning prevents liver iron loading by age of 6-7 weeks. The efficacy of the Fpn inhibitors to prevent liver iron accumulation in b2m−/− mice is investigated. Three weeks old b2−/− mice fed LID are dosed with either Fpn inhibitor or vehicle (methylcellulose; 10 ml/kg). Mice have access to drinking water supplemented with 1 mM ^58Fe(II)-sulfate and 10 mM ascorbic acid. Dosing of Fpn inhibitor or vehicle followed by exposure to iron-containing water is repeated for 14 days. Mice are euthanized and the liver and spleen iron contents are analyzed by ICP-OES (all iron isotopes) and liver tissue is also analyzed for ^58Fe concentration (ICP-MS).
Livers and spleens are collected after 14 day treatment (p.o.; b.i.d) of beta2-microglobulin deficient mice with the indicated doses of Fpn inhibitors. Total liver and spleen tissue iron concentrations are measured using ICP-OES and ^58Fe liver concentrations are determined with ICP-MS. Relative changes (%) of tissue iron levels are calculated by normalizing the difference between the averages of tissue iron values of animals dosed with the Fpn inhibitors and those of vehicle-treated animals with the average of vehicle controls.

[3] = test system: beta2-microglobulin deficient (b2m−/−) mice; test: Correction of hyperferremia in beta2-microglobulin deficient mice
Protocol: Female and male homozygous b2m−/− mice are supplied from Jackson Laboratories (B6.129P2-B2mtm1Unc/J, Stock Number: 002087) at age of 6 to 7 weeks and fed standard diet (Harlan Provimi Kliba 3436) ad libitum. Age and gender matched WT C57BL/6 mice are supplied by Charles River. To study the acute effects of ferroportin (Fpn) inhibitors in iron overload b2m−/− mice are treated with compounds or the corresponding amount of vehicle at a volume of 10 ml/kg body weight. Fpn inhibitor compounds are formulated in 0.5% methylcellulose/water or 20% cremophor EL/water and dosed p.o. in mice at 50 mg/kg body weight. WT controls received only vehicle. Three hours later, mice are pre-terminally anesthetized in isoflurane chambers and blood is collected by retro-orbital bleeding. Mice are sacrificed by cervical dislocation and spleens, livers and duodena are harvested and used for biomarker analysis. All experiments are performed in compliance with license approved by the responsible veterinarian authorities. Serum is isolated by centrifugation of blood into gel-containing microtainers (BD Biosciences) and serum iron is determined by the MULTIGENT Iron assay (Abbott Diagnostics, Cat. 6K95). Four to nine mice per group are used and one-way ANOVA with Bonferroni's multiple comparison test is applied to analyze the statistical differences between the experimental groups.
Blood is collected 1 (#) or 3 (##) hours after oral administration of the indicated doses of Fpn inhibitors to beta2-microglobulin deficient mice and serum iron concentrations are measured. Relative reduction (%) of serum iron levels are shown, which were calculated by subtracting the average of serum iron values of animals dosed with the Fpn inhibitor from that of vehicle-treated animals. The difference in average serum iron values between vehicle and compound treated groups was then divided by the average of serum iron of the vehicle control group and listed as percentage. Values are listed separately for female (♀) and male (♂) animals, because a marked sex-dependent difference in efficacy was noted. Statistically significant (2-way ANOVA with Bonferroni post test) differences observed between compound-treated and vehicle-treated groups are indicated (*** p<0.001; ** p<0.01, p<0.05).

[4] = female ♀, 20 mg/kg oral, blood collection time not marked
[5] = female ♀, 60 mg/kg oral, blood collection time not marked
[6] = male ♂, 20 mg/kg oral, blood collection time not marked
[7] = male ♂, 60 mg/kg oral, blood collection time not marked

O=C(NCc1ncccc1F)c1cnc(CCNCCc2nc3ccccc3[nH]2)o1 [Example Compound No. 1]
inhibition in vivo at 10 mg/kg [1]: 0% | inhibition in vivo at 30 mg/kg [1]: 28% | inhibition in vivo at 100 mg/kg [1]: 51% | Total Liver Iron Reduction (%) ([2]; female ♀, 20 mg/kg p.o. b.i.d.): −1% | Total Spleen Iron Increase (%) ([2]; female ♀, 20 mg/kg p.o. b.i.d.): 21% | ^58Fe Liver Iron Reduction (%) ([2]; female ♀, 20 mg/kg p.o. b.i.d.): 4% | Total Liver Iron Reduction (%) ([2]; female ♀, 60 mg/kg p.o. b.i.d.): 15% | Total Spleen Iron Increase (%) ([2]; female ♀, 60 mg/kg p.o. b.i.d.): 65% | ^58Fe Liver Iron Reduction (%) ([2]; female ♀, 60 mg/kg p.o. b.i.d.): 59% | Total Liver Iron Reduction (%) ([2]; male ♂, 20 mg/kg p.o. b.i.d.): 16% | Total Spleen Iron Increase (%) ([2]; male ♂, 20 mg/kg p.o. b.i.d.): 28% | ^58Fe Liver Iron Reduction (%) ([2]; male ♂, 20 mg/kg p.o. b.i.d.): −8% | Total Liver Iron Reduction (%) ([2]; male ♂, 60 mg/kg p.o. b.i.d.): 25% | Total Spleen Iron Increase (%) ([2]; male ♂, 60 mg/kg p.o. b.i.d.): 49% | ^58Fe Liver Iron Reduction (%) ([2]; male ♂, 60 mg/kg p.o. b.i.d.): 22% | Serum Iron Reduction (%) [3, 4]: 31** % | Serum Iron Reduction (%) [3, 5]: 52** % | Serum Iron Reduction (%) [3, 6]: 31** % | Serum Iron Reduction (%) [3, 7]: 59** %

O=C(NCc1ncccc1F)c1cnc(C2CN(CCc3nc4ccccc4[nH]3)C2)o1 [Example Compound No. 2]
inhibition in vivo at 10 mg/kg [1]: 9% | inhibition in vivo at 30 mg/kg [1]: 26% | inhibition in vivo at 100 mg/kg [1]: 50% | Total Liver Iron Reduction (%) ([2]; female ♀, 20 mg/kg p.o. b.i.d.): 26% | Total Spleen Iron Increase (%) ([2]; female ♀, 20 mg/kg p.o. b.i.d.): 13% | ^58Fe Liver Iron Reduction (%) ([2]; female ♀, 20 mg/kg p.o. b.i.d.): 60** % | Total Liver Iron Reduction (%) ([2]; female ♀, 60 mg/kg p.o. b.i.d.): 45% | Total Spleen Iron Increase (%) ([2]; female ♀, 60 mg/kg p.o. b.i.d.): 1% | ^58Fe Liver Iron Reduction (%) ([2]; female ♀, 60 mg/kg p.o. b.i.d.): 77*** % | Total Liver Iron Reduction (%) ([2]; male ♂, 20 mg/kg p.o. b.i.d.): 10% | Total Spleen Iron Increase (%) ([2]; male ♂, 20 mg/kg p.o. b.i.d.): 18% | ^58Fe Liver Iron Reduction (%) ([2]; male ♂, 20 mg/kg p.o. b.i.d.): 24% | Total Liver Iron Reduction (%) ([2]; male ♂, 60 mg/kg p.o. b.i.d.): 28% | Total Spleen Iron Increase (%) ([2]; male ♂, 60 mg/kg p.o. b.i.d.): −20% | ^58Fe Liver Iron Reduction (%) ([2]; male ♂, 60 mg/kg p.o. b.i.d.): 70% | Serum Iron Reduction (%) [3, 4]: 27% | Serum Iron Reduction (%) [3, 5]: 57** % | Serum Iron Reduction (%) [3, 6]: 29% | Serum Iron Reduction (%) [3, 7]: 66** %

O=C(NCc1ncccc1F)c1csc(CCNCc2nc3ccccc3[nH]2)n1 [Example Compound No. 40]
inhibition in vivo at 10 mg/kg [1]: 10% | inhibition in vivo at 30 mg/kg [1]: 30% | inhibition in vivo at 100 mg/kg [1]: 50% | Total Liver Iron Reduction (%) ([2]; female ♀, 20 mg/kg p.o. b.i.d.): 32% | Total Spleen Iron Increase (%) ([2]; female ♀, 20 mg/kg p.o. b.i.d.): 50* % | ^58Fe Liver Iron Reduction (%) ([2]; female ♀, 20 mg/kg p.o. b.i.d.): 44% | Total Liver Iron Reduction (%) ([2]; male ♂, 20 mg/kg p.o. b.i.d.): 31% | ^58Fe Liver Iron Reduction (%) ([2]; male ♂, 20 mg/kg p.o. b.i.d.): 53* % | Correction of elevated serum iron, in words ([3]; b2m−/− mice, 50 mg/kg p.o., 3 h): corrected the elevated serum iron to the levels observed in WT controls | Serum Iron Reduction (%) ([3]; female ♀, 20 mg/kg oral, 1 hour (#)): 0% | Serum Iron Reduction (%) ([3]; female ♀, 60 mg/kg oral, 1 hour (#), 60 mg/kg): 13% and 10% | Serum Iron Reduction (%) ([3]; male ♂, 20 mg/kg oral, 1 hour (#)): 35** % | Serum Iron Reduction (%) ([3]; male ♂, 60 mg/kg oral, 1 hour (#), 60 mg/kg): 32** % and 58** %
